Data taken from ChEMBL document CHEMBL4364246, “Synthesis and biological evaluation of 5-aminoethyl benzophenanthridone derivatives as DNA topoisomerase IB inhibitors” (Eur J Med Chem, 2019).

Experiments:
Malme-3M = experiment: Growth inhibition of human MALME-3M cells incubated for 48 hrs by sulforhodamine B assay; assay type: functional
MDA-MB-231 = experiment: Growth inhibition of human MDA-MB-231 cells incubated for 48 hrs by sulforhodamine B assay; assay type: functional; conditions: MDA-MB-231, 48 h
CAKI-1 = experiment: Growth inhibition of human Caki1 cells incubated for 48 hrs by sulforhodamine B assay; assay type: functional; conditions: CAKI-1, 48 h
COLO 205 = experiment: Growth inhibition of human COLO205 cells incubated for 48 hrs by sulforhodamine B assay; assay type: functional; conditions: COLO 205, 48 h
NCI-H460 = experiment: Growth inhibition of human NCI-H460 cells incubated for 48 hrs by sulforhodamine B assay; assay type: functional; conditions: NCI-H460, 48 h
SF-268 = experiment: Growth inhibition of human SF268 cells incubated for 48 hrs by sulforhodamine B assay; assay type: functional; conditions: SF-268, 48 h
HCT-116 = experiment: Growth inhibition of human HCT116 cells incubated for 48 hrs by sulforhodamine B assay; assay type: functional; conditions: HCT-116, 48 h
SNB-19 = experiment: Growth inhibition of human SNB19 cells incubated for 48 hrs by sulforhodamine B assay; assay type: functional; conditions: SNB-19, 48 h
M14 = experiment: Growth inhibition of human M14 cells incubated for 48 hrs by sulforhodamine B assay; assay type: functional; conditions: M14, 48 h
UACC-62 = experiment: Growth inhibition of human UACC62 cells incubated for 48 hrs by sulforhodamine B assay; assay type: functional; conditions: UACC-62, 48 h
BT-549 = experiment: Growth inhibition of human BT549 cells incubated for 48 hrs by sulforhodamine B assay; assay type: functional; conditions: BT-549, 48 h
MDA-MB-435 = experiment: Growth inhibition of human MDA-MB-435 cells incubated for 48 hrs by sulforhodamine B assay; assay type: functional; conditions: MDA-MB-435, 48 h
RPMI-8226 = experiment: Growth inhibition of human RPMI8226 cells incubated for 48 hrs by sulforhodamine B assay; assay type: functional; conditions: RPMI-8226, 48 h
U-251 = experiment: Growth inhibition of human U251 cells incubated for 48 hrs by sulforhodamine B assay; assay type: functional; conditions: U-251, 48 h
[1] = system: Panel NCI-60 (60 carcinoma cell lines); experiment: Growth inhibition of human NCI60 incubated for 48 hrs by sulforhodamine B assay; assay type: functional
SW-620 = experiment: Growth inhibition of human SW620 cells incubated for 48 hrs by sulforhodamine B assay; assay type: functional; conditions: SW-620, 48 h
HCC 2998 = experiment: Growth inhibition of human HCC2998 cells incubated for 48 hrs by sulforhodamine B assay; assay type: functional; conditions: HCC 2998, 48 h
NCI-H322M = experiment: Growth inhibition of human NCI-H322M cells incubated for 48 hrs by sulforhodamine B assay; assay type: functional
SK-MEL-2 = experiment: Growth inhibition of human SK-MEL-2 cells incubated for 48 hrs by sulforhodamine B assay; assay type: functional; conditions: SK-MEL-2, 48 h
HOP-62 = experiment: Growth inhibition of human HOP62 cells incubated for 48 hrs by sulforhodamine B assay; assay type: functional; conditions: HOP-62, 48 h
NCI-H522 = experiment: Growth inhibition of human NCI-H522 cells incubated for 48 hrs by sulforhodamine B assay; assay type: functional; conditions: NCI-H522, 48 h
RXF 393 = experiment: Growth inhibition of human RXF393 cells incubated for 48 hrs by sulforhodamine B assay; assay type: functional; conditions: RXF 393, 48 h
IGROV-1 = experiment: Growth inhibition of human IGROV1 cells incubated for 48 hrs by sulforhodamine B assay; assay type: functional; conditions: IGROV-1, 48 h
K562 = experiment: Growth inhibition of human K562 cells incubated for 48 hrs by sulforhodamine B assay; assay type: functional; conditions: K562, 48 h
SF-295 = experiment: Growth inhibition of human SF295 cells incubated for 48 hrs by sulforhodamine B assay; assay type: functional; conditions: SF-295, 48 h
ACHN = experiment: Growth inhibition of human ACHN cells incubated for 48 hrs by sulforhodamine B assay; assay type: functional
OVCAR-4 = experiment: Growth inhibition of human OVCAR4 cells incubated for 48 hrs by sulforhodamine B assay; assay type: functional; conditions: OVCAR-4, 48 h
A549 [2] = experiment: cells; conditions: Homo sapiens, A549, 72 h
EKVX = experiment: Growth inhibition of human EKVX cells incubated for 48 hrs by sulforhodamine B assay; assay type: functional
T47D = experiment: Growth inhibition of human T47D cells incubated for 48 hrs by sulforhodamine B assay; assay type: functional
786-0 = experiment: Growth inhibition of human 786-0 cells incubated for 48 hrs by sulforhodamine B assay; assay type: functional; conditions: 786-0, 48 h
A549 [3] = experiment: Growth inhibition of human A549/ATCC cells incubated for 48 hrs by sulforhodamine B assay; assay type: functional; conditions: A549, 48 h
Hs-578T = experiment: Growth inhibition of human Hs 578T cells incubated for 48 hrs by sulforhodamine B assay; assay type: functional
NCI/ADR-RES = experiment: Growth inhibition of human NCI/ADR-RES cells incubated for 48 hrs by sulforhodamine B assay; assay type: functional
SF-539 = experiment: Growth inhibition of human SF539 cells incubated for 48 hrs by sulforhodamine B assay; assay type: functional; conditions: SF-539, 48 h
A498 = experiment: Growth inhibition of human A498 cells incubated for 48 hrs by sulforhodamine B assay; assay type: functional; conditions: A498, 48 h
NCI-H23 = experiment: Growth inhibition of human NCI-H23 cells incubated for 48 hrs by sulforhodamine B assay; assay type: functional; conditions: NCI-H23, 48 h

| Compound | GI50 (Malme-3M) | GI50 (MDA-MB-231) | GI50 (CAKI-1) | GI50 (COLO 205) | GI50 (NCI-H460) | GI50 (SF-268) | GI50 (HCT-116) | GI50 (SNB-19) | GI50 (M14) | GI50 (UACC-62) | GI50 (BT-549) | GI50 (MDA-MB-435) | GI50 (RPMI-8226) | GI50 (U-251) | GI50 [1] | GI50 (SW-620) | GI50 (HCC 2998) | GI50 (NCI-H322M) | GI50 (SK-MEL-2) | GI50 (HOP-62) | also measured |
| --- | --- | --- | --- | --- | --- | --- | --- | --- | --- | --- | --- | --- | --- | --- | --- | --- | --- | --- | --- | --- | --- |
| CNCCn1c(=O)c2cc(OC)c(OC)cc2c2ccc3cc4c(cc3c21)OCO4 | 174 nM | 362 nM | 64.4 nM | 60.5 nM | 21.2 nM | 90.3 nM | 51.5 nM | 116 nM | 58.1 nM | 45.1 nM | 202 nM | 118 nM | 76.3 nM | 39.4 nM | 97.7 nM | 65.8 nM | 156 nM | 147 nM | 393 nM | 43.9 nM | GI50 (NCI-H522): 27.4 nM; GI50 (RXF 393): 160 nM; GI50 (IGROV-1): 145 nM; GI50 (K562): 39.4 nM; GI50 (SF-295): 34.6 nM; GI50 (ACHN): 85.6 nM; GI50 (OVCAR-4): 154 nM; GI50 (A549 [2]): 970 nM; GI50 (EKVX): 202 nM; GI50 (T47D): 75.7 nM; GI50 (786-0): 70.3 nM; GI50 (A549 [3]): 94.8 nM; GI50 (Hs-578T): 904 nM; GI50 (NCI/ADR-RES): 165 nM; GI50 (SF-539): 124 nM; GI50 (A498): 127 nM; GI50 (NCI-H23): 90.6 nM |
| COc1cc2c(=O)n(CCN)c3c4cc5c(cc4ccc3c2cc1OC)OCO5 | 613 nM | 1280 nM | 295 nM | 290 nM | 230 nM | 442 nM | 285 nM | 398 nM | 324 nM | 278 nM | 918 nM | 759 nM | 257 nM | 260 nM | 525 nM | 243 nM | 1020 nM | 990 nM | 3010 nM | 399 nM | GI50 (NCI-H522): 87.5 nM; GI50 (RXF 393): 929 nM; GI50 (IGROV-1): 500 nM; GI50 (K562): 161 nM; GI50 (SF-295): 279 nM; GI50 (ACHN): 366 nM; GI50 (OVCAR-4): 782 nM; GI50 (A549 [2]): 980 nM; GI50 (EKVX): 1360 nM; GI50 (T47D): 368 nM; GI50 (786-0): 464 nM; GI50 (A549 [3]): 584 nM; GI50 (Hs-578T): 1960 nM; GI50 (NCI/ADR-RES): 1010 nM; GI50 (SF-539): 1060 nM; GI50 (A498): 1230 nM; GI50 (NCI-H23): 451 nM |
